Results published in ChEMBL document CHEMBL3045802, “Synthesis and in vitro antitumor activity of new quinoline, pyrimido[4,5-b]quinoline, [1,2,3]triazino[4,5-b]quinoline, and [1,2,4]triazolo[2,3:3,4]pyrimido[6,5-b]quinoline analogs” (2013).

Columns and labels:
Type in all cases: functional
[1] = test system: K562; assay: Cytotoxicity against Homo sapiens (human) K562 cells assessed as growth inhibition at 10 uM after 48 hr by coulter counter analysis; details: K562, 48 h, read-out: GI
[2] = test system: ACHN; assay: Cytotoxicity against Homo sapiens (human) ACHN cells assessed as growth inhibition at 10 uM after 48 hr by coulter counter analysis; details: read-out: GI
[3] = test system: SK-MEL-5; assay: Cytotoxicity against Homo sapiens (human) SK-MEL-5 cells assessed as growth inhibition at 10 uM after 48 hr by coulter counter analysis; details: SK-MEL-5, 48 h, read-out: GI
[4] = test system: SNB-75; assay: Cytotoxicity against Homo sapiens (human) SNB75 cells assessed as growth inhibition at 10 uM after 48 hr by coulter counter analysis; details: SNB-75, 48 h, read-out: GI
[5] = test system: SW-620; assay: Cytotoxicity against Homo sapiens (human) SW620 cells assessed as growth inhibition at 10 uM after 48 hr by coulter counter analysis; details: SW-620, 48 h, read-out: GI
[6] = test system: LOX IMVI; assay: Cytotoxicity against Homo sapiens (human) LOXIMVI cells assessed as growth inhibition at 10 uM after 48 hr by coulter counter analysis; details: read-out: GI
[7] = test system: CCRF-CEM; assay: Cytotoxicity against Homo sapiens (human) CCRF-CEM cells assessed as growth inhibition at 10 uM after 48 hr by coulter counter analysis; details: read-out: GI
[8] = test system: UACC-62; assay: Cytotoxicity against Homo sapiens (human) UACC62 cells assessed as growth inhibition at 10 uM after 48 hr by coulter counter analysis; details: UACC-62, 48 h, read-out: GI
[9] = test system: KM12; assay: Cytotoxicity against Homo sapiens (human) KM12 cells assessed as growth inhibition at 10 uM after 48 hr by coulter counter analysis; details: KM12, 48 h, read-out: GI
[10] = test system: SK-OV-3; assay: Cytotoxicity against Homo sapiens (human) SKOV3 cells assessed as growth inhibition at 10 uM after 48 hr by coulter counter analysis; details: SK-OV-3, 48 h, read-out: GI
[11] = test system: HCT-116; assay: Cytotoxicity against Homo sapiens (human) HCT116 cells assessed as growth inhibition at 10 uM after 48 hr by coulter counter analysis; details: HCT-116, 48 h, read-out: GI
[12] = test system: SN12C; assay: Cytotoxicity against Homo sapiens (human) SN12C cells assessed as growth inhibition at 10 uM after 48 hr by coulter counter analysis; details: read-out: GI
[13] = test system: EKVX; assay: Cytotoxicity against Homo sapiens (human) EKVX cells assessed as growth inhibition at 10 uM after 48 hr by coulter counter analysis; details: read-out: GI
[14] = test system: MDA-MB-231; assay: Cytotoxicity against Homo sapiens (human) MDA-MB-231 cells assessed as growth inhibition at 10 uM after 48 hr by coulter counter analysis; details: MDA-MB-231, 48 h, read-out: GI
[15] = test system: MDA-MB-468; assay: Cytotoxicity against Homo sapiens (human) MDA-MB-468 cells assessed as growth inhibition at 10 uM after 48 hr by coulter counter analysis; details: MDA-MB-468, 48 h, read-out: GI
[16] = test system: DU-145; assay: Cytotoxicity against Homo sapiens (human) DU145 cells assessed as growth inhibition at 10 uM after 48 hr by coulter counter analysis; details: DU-145, 48 h, read-out: GI
[17] = test system: MOLT-4; assay: Cytotoxicity against Homo sapiens (human) MOLT4 cells assessed as growth inhibition at 10 uM after 48 hr by coulter counter analysis; details: MOLT-4, 48 h, read-out: GI
[18] = test system: TK-10; assay: Cytotoxicity against Homo sapiens (human) TK10 cells assessed as growth inhibition at 10 uM after 48 hr by coulter counter analysis; details: TK-10, 48 h, read-out: GI
[19] = test system: A549; assay: Cytotoxicity against Homo sapiens (human) A549 cells assessed as growth inhibition at 10 uM after 48 hr by coulter counter analysis; details: A549, 48 h, read-out: GI
[20] = test system: NCI-H460; assay: Cytotoxicity against Homo sapiens (human) NCI-H460 cells assessed as growth inhibition at 10 uM after 48 hr by coulter counter analysis; details: NCI-H460, 48 h, read-out: GI
[21] = test system: NCI-H23; assay: Cytotoxicity against Homo sapiens (human) NCI-H23 cells assessed as growth inhibition at 10 uM after 48 hr by coulter counter analysis; details: NCI-H23, 48 h, read-out: GI
[22] = test system: Hs-578T; assay: Cytotoxicity against Homo sapiens (human) Hs578T cells assessed as growth inhibition at 10 uM after 48 hr by coulter counter analysis; details: read-out: GI
[23] = test system: Malme-3M; assay: Cytotoxicity against Homo sapiens (human) MALME-3M cells assessed as growth inhibition at 10 uM after 48 hr by coulter counter analysis; details: read-out: GI
[24] = test system: NCI-H522; assay: Cytotoxicity against Homo sapiens (human) NCI-H522 cells assessed as growth inhibition at 10 uM after 48 hr by coulter counter analysis; details: NCI-H522, 48 h, read-out: GI
[25] = test system: BT-549; assay: Cytotoxicity against Homo sapiens (human) BT549 cells assessed as growth inhibition at 10 uM after 48 hr by coulter counter analysis; details: BT-549, 48 h, read-out: GI

Row | SMILES | inhibition of growth at 10 µM [1] | inhibition of growth at 10 µM [2] | inhibition of growth at 10 µM [3] | inhibition of growth at 10 µM [4] | inhibition of growth at 10 µM [5] | inhibition of growth at 10 µM [6] | inhibition of growth at 10 µM [7] | inhibition of growth at 10 µM [8] | inhibition of growth at 10 µM [9] | inhibition of growth at 10 µM [10] | inhibition of growth at 10 µM [11] | inhibition of growth at 10 µM [12] | inhibition of growth at 10 µM [13] | inhibition of growth at 10 µM [14] | inhibition of growth at 10 µM [15] | inhibition of growth at 10 µM [16] | inhibition of growth at 10 µM [17] | inhibition of growth at 10 µM [18] | inhibition of growth at 10 µM [19] | inhibition of growth at 10 µM [20] | other results
1 | COc1ccc(-c2nc3c(c(=O)[nH]2)C(c2ccc(OC)c(OC)c2)C2=C(CCCC2)N3)cc1OC (centres undefined) | < 10% | 28.8% | 18.6% | 22.6% | < 10% | 21.1% | 11.7% | < 10% | < 10% | < 10% | < 10% | 15% | < 10% | < 10% | 28.5% | < 10% | < 10% | < 10% | < 10% | < 10% | inhibition of growth at 10 µM [21]: < 10%; inhibition of growth at 10 µM [22]: < 10%; inhibition of growth at 10 µM [23]: < 10%; inhibition of growth at 10 µM [24]: 25.8%
2 | Clc1ccc(C2C3=C(CCCC3)Nc3ncn4nc(-c5ccccc5)nc4c32)cc1 (centres undefined) | < 10% | < 10% | < 10% | 10.5% | < 10% | 15.1% | < 10% | 13.4% | < 10% | < 10% | < 10% | < 10% | < 10% | 11.1% | 23.1% | < 10% | 11% | < 10% | < 10% | < 10% | inhibition of growth at 10 µM [21]: 11.7%; inhibition of growth at 10 µM [22]: < 10%; inhibition of growth at 10 µM [25]: < 10%; inhibition of growth at 10 µM [23]: < 10%; inhibition of growth at 10 µM [24]: 23.5%
3 | Oc1ccc(-c2nc3c4c(ncn3n2)NC2=C(CCCC2)C4c2ccc(Cl)cc2)cc1 (centres undefined) | < 10% | < 10% | < 10% | 20.5% | < 10% | 14.3% | 13.2% | 17.4% | < 10% | < 10% | < 10% | < 10% | < 10% | 20.5% | < 10% | < 10% | < 10% | < 10% | < 10% | < 10% | inhibition of growth at 10 µM [21]: 12.9%; inhibition of growth at 10 µM [22]: 14.1%; inhibition of growth at 10 µM [25]: < 10%; inhibition of growth at 10 µM [23]: 13%; inhibition of growth at 10 µM [24]: < 10%
4 | COc1ccc(C2C3=C(CCCC3)Nc3ncn4nc(-c5ccccc5)nc4c32)cc1OC (centres undefined) | < 10% | 20% | < 10% | < 10% | < 10% | < 10% | < 10% | < 10% | < 10% | < 10% | < 10% | < 10% | 11% | 12.6% | 23.2% | < 10% | 19.8% | < 10% | 12.3% | < 10% | inhibition of growth at 10 µM [21]: 10.7%; inhibition of growth at 10 µM [22]: < 10%; inhibition of growth at 10 µM [25]: < 10%; inhibition of growth at 10 µM [23]: < 10%; inhibition of growth at 10 µM [24]: 31.4%
5 | COc1ccc(C2C3=C(CCCC3)Nc3ncn4nc(-c5ccc(O)cc5)nc4c32)cc1OC (centres undefined) | < 10% | < 10% | 23.2% | 19.1% | < 10% | < 10% | < 10% | < 10% | < 10% | < 10% | < 10% | < 10% | < 10% | 12.8% | 21.4% | < 10% | 12.3% | < 10% | < 10% | < 10% | inhibition of growth at 10 µM [21]: < 10%; inhibition of growth at 10 µM [22]: < 10%; inhibition of growth at 10 µM [25]: < 10%; inhibition of growth at 10 µM [23]: < 10%; inhibition of growth at 10 µM [24]: 16.4%
